# From patent publication EP3390415B1, “(R)- AND (S)-1-(3-(3-N,N-DIMETHYLAMINOCARBONYL)PHENOXYL-4-NITROPHENYL)-1-ETHYL-N,N'-BIS (ETHYLENE)PHOSPHORAMIDATE, COMPOSITIONS AND METHODS FOR THEIR USE AND PREPARATION” (OBI PHARMA, INC., priority 2015, dated 2017)
# Read-outs that look alike come from different tables or passages of the source.
# Experiments:
# [1] = tested on: A375 melanoma human tumor xenograft; assay: In vivo human tumor xenograft model, antitumor activity; parameters: species or system nude mice; conditions: 20mpk,qdx5x2,ip
# From the text: Specific pathogen-free homozygous female nude mice (nu/nu, Charles River Laboratories) were used. Mice were given food and water ad libitum and housed in microisolator cages. Four to six week old animals were identified by microchips (Locus Technology, Manchester, MD, USA) at the time of the experiments. All animal studies were approved by the Institutional Animal Care and Use Committee at Threshold Pharmaceuticals, Inc.
# All cell lines were from the American Type Culture Collection (ATCC, Rockville, MD, USA).
# Cells were mixed with Matrigel (30% in H460) and 0.2 ml per mouse were subcutaneously implanted to the flank area of the animals. When tumor size reached 100-150 mm^3, mice were randomized into experimental or vehicle groups with 10 mice/group and treatment was started (Day 1). The tested compounds were formulated in 5% DMSO in D5W. All compounds were given by IP, QDx5/wk (5 days on, 2 days off) as one cycle, for a total of 2 cycles. Tumor growth and body weight were measured twice a week. Tumor volume was calculated as (length x width^2)/2. Drug efficacy was assessed as Tumor Growth Inhibition (TGI) and Tumor Growth Delay (TGD). TGI was defined as (1-ΔT/ΔC) x 100, where ΔT/ΔC presented the ratio of the change in mean (or median, if variation within the group was relatively large) tumor volume of the treated group and of the control group. TGD was calculated as the extra days for the treated tumor to reach 500mm^3 as compared to the control group. Animals were culled when individual tumor size reached over 2000mm^3 or mean tumor volume exceeded 1000mm^3 in the group. Data are expressed as the mean ± SEM. One-way analysis of variance with Dunnett post comparison test (GraphPad Prism 4) or two-tailed student's t-test were used for analysis. A P level < 0.05 was considered statistically significant.
# This study employed an A375 melanoma human tumor xenograft model and the compounds provided herein were compared to thiotepa and the approved anti melanoma drug, Abraxane. […] Mpk refers to mg/kg.
# Recombinant human AKR1C3 = Recombinant human AKR1C3 (Homo sapiens, UniProt P42330); assay: Activation by the aldoketo reductase AKR1C3; type: biochemical; conditions: 5 µM, 2 mM NADPH, 37 °C, up to 120 min; FIG. 2
# Chain of Recombinant human AKR1C3 (P42330 whole entry): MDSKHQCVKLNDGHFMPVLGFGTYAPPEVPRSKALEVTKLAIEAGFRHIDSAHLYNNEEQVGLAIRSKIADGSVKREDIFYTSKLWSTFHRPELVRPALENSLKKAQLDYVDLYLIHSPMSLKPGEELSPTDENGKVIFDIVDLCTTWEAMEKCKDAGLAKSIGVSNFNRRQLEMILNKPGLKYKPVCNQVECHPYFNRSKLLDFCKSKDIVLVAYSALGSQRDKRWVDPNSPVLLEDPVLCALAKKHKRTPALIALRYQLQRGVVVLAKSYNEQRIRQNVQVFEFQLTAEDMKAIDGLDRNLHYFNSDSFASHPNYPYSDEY
# Procedure: Recombinant human AKR1C3 was diluted to 25 µg/mL in phosphate buffered saline (PBS), pH 7.4 (37 °C), containing 2 mM NADPH. TH2870 or progesterone (positive control) in 30% methanol/70% water was added to the reaction mixture at a final concentration of 5 µM and incubated at 37 °C for 120 minutes. At various times up to 120 min, 50 µL of the reaction mixture was taken and 200 µL acetonitrile containing propranolol as internal standard was added, vortex-mixed and centrifuged for 10 min. The resulting supernatant (5 µL) was injected into a LC/MS/MS for quantitation of % remaining TH 2870 and progesterone. The compounds were tested in duplicates.
# PLCPRF5 = assay: In vitro human tumor cell line cytotoxicity assay; type: cell-based; conditions: for IC50: Homo sapiens
# HepG2 = assay: In vitro human tumor cell line cytotoxicity assay; type: cell-based; conditions: for IC50: Homo sapiens
# HCCC9810 = assay: In vitro human tumor cell line cytotoxicity assay; type: cell-based; conditions: for IC50: Homo sapiens
# C3A = assay: In vitro human tumor cell line cytotoxicity assay; type: cell-based; conditions: for IC50: Homo sapiens
# LIXC012 = assay: In vitro human tumor cell line cytotoxicity assay; type: cell-based; conditions: for IC50: Homo sapiens
# SNU-387 = assay: In vitro human tumor cell line cytotoxicity assay; type: cell-based; conditions: for IC50: Homo sapiens
# Vcap = assay: In vitro human tumor cell line cytotoxicity assay; type: cell-based; conditions: for IC50: Homo sapiens, VCaP
# H460 cells = assay: In vitro proliferation assay, H460; type: cell-based; conditions: Homo sapiens, NCI-H460; 2 hrs exposure, wash, additional 70hrs, AlamarBlue; read-out: IC 50 in proliferation assay in H460 cells
# Procedure: In vitro proliferation data on the H460 […] human tumor cell line is reported above in the compound table. IC50 values are reported in micromolar and result from exposure of compound at various concentrations for 2 hrs followed by a wash step and addition of fresh media followed by growth and cell viability staining and comparison to a media only treated control.
# Specifically, exponentially growing cells were seeded at a density of 4 x 10^3 cells per well in a 96 well plate and incubated at 37°C in 5% CO2, 95% air and 100% relative humidity for 24 hours prior to addition of test compounds. Compounds were solubilized in 100% DMSO at 200 times the desired final test concentration. At the time of drug addition, compounds were further diluted to 4 times the desired final concentration with complete medium. Aliquots of 50 µl of compound at specified concentrations were added to microtiter wells already containing 150 µl of medium, resulting in the final drug concentration reported. After drug addition, the plates were incubated for an additional 2 hours at 37°C, 5% CO2, 95% air, and 100% relative humidity, then the drug was washed off and fresh medium was added and the plates were incubated for addition 70hrs at 37 °C, 5% CO2, 95% air and 100% relative humidity. At the end of this incubation, the viable cells were quantified using the AlamarBlue assay. The drug concentration resulting in growth inhibition of 50% (IC50) was calculated using Prism software (Irvine, CA), and the results were listed in the table.
smiles,measurement,setting,value
"CC(OP(=O)(N1CC1)N1CC1)c1ccc([N+](=O)[O-])c(Oc2cccc(C(=O)N(C)C)c2)c1 (racemic) [TH 2870, (R,S)-1-(3-(3-N,N-dimethylaminocarbonyl)phenoxyl-4-nitrophenyl)-1-ethyl-N,N'-bis(ethylene)phosphoramidate]","TGD500, Days (vs. vehicle)",[1],>13 days
same,TGI,[1],98.0%
same,disappearance of compound (% remaining) in the presence of AKR1C3,Recombinant human AKR1C3,rapid disappearance
same,Max Inhibition%,PLCPRF5,53.3%
same,Min Inhibition%,PLCPRF5,-1.7%
same,IC50,"PLCPRF5; PLC-PRF-5, read-out: AbsIC50",575 nM
same,IC50,"PLCPRF5; PLC-PRF-5, read-out: RelIC50",474 nM
same,Max Inhibition%,HepG2,98.9%
same,Min Inhibition%,HepG2,3.3%
same,IC50,HepG2; read-out: AbsIC50,6.4 nM
same,IC50,HepG2; read-out: RelIC50,5.5 nM
same,Max Inhibition%,HCCC9810,95.4%
same,Min Inhibition%,HCCC9810,-2.6%
same,IC50,HCCC9810; read-out: AbsIC50,29.4 nM
same,IC50,HCCC9810; read-out: RelIC50,29.2 nM
same,Max Inhibition%,C3A,98.1%
same,Min Inhibition%,C3A,8.1%
same,IC50,C3A; read-out: AbsIC50,6.2 nM
same,IC50,C3A; read-out: RelIC50,7.1 nM
same,Max Inhibition%,LIXC012,87.1%
same,Min Inhibition%,LIXC012,6.6%
same,IC50,LIXC012; read-out: AbsIC50,18.7 nM
same,IC50,LIXC012; read-out: RelIC50,27.4 nM
same,Max Inhibition%,SNU-387,102.8%
same,Min Inhibition%,SNU-387,1.7%
same,IC50,SNU-387; read-out: AbsIC50,34 nM
same,IC50,SNU-387; read-out: RelIC50,42.2 nM
same,IC50,Vcap; read-out: AbsIC50,15.2 nM
same,IC50,Vcap; read-out: RelIC50,22.7 nM
same,Max Inhibition%,Vcap; Vcap,100.2%
same,Min Inhibition%,Vcap; Vcap,-3.4%
same,IC50,H460 cells,5 nM
